Paper PMC4258814, “Differences between murine arylamine N-acetyltransferase type 1 and human arylamine N-acetyltransferase type 2 defined by substrate specificity and inhibitor binding” (BMC Pharmacology & Toxicology, 2014)
Residue numbers refer to the chain shown, from its start.

Experiments:
(MESAU)NAT2*1 = tested on: (MESAU)NAT2*1; design: method as in PMID 15627487, PMID 18280460; conditions: substrate 500 μM, relative to substrate with highest specific activity (100%), mean of 3 ± SD, ref [8], [22]; cited from earlier work
(HUMAN)NAT2*4 = target: T1, (HUMAN)NAT2*4 (Homo sapiens, UniProt P11245); design: method as in PMID 15627487, PMID 18280460; conditions: substrate 500 μM, relative to substrate with highest specific activity (100%), mean of 3 ± SD, ref [8], [22]; cited from earlier work
T1 construct: made in house
T1 sequence (P11245 1-290): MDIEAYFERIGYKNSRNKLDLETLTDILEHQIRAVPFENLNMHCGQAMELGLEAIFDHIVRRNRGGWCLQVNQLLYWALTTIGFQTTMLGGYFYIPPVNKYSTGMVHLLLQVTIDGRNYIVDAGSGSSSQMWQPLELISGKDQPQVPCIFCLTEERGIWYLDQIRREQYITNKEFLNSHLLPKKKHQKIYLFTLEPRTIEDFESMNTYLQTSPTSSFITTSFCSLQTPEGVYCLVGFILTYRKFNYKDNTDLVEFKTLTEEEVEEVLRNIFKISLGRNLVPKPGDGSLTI

(MOUSE)NAT1*1 = target: T2, (MOUSE)NAT1*1 (Mus musculus, UniProt P50294); assay: Substrate specific N-acetylation profile; type: biochemical; conditions: substrate 500 μM, relative to substrate with highest specific activity (100%), mean of 3 ± SD
T2 construct: The open reading frame of (MOUSE)Nat1*1 [32] was subcloned; hexa-His (N, cleaved yes); made in house; host or cells: Escherichia coli BL21(DE3)CodonPlus-RIL
T2 sequence (P50294 1-290): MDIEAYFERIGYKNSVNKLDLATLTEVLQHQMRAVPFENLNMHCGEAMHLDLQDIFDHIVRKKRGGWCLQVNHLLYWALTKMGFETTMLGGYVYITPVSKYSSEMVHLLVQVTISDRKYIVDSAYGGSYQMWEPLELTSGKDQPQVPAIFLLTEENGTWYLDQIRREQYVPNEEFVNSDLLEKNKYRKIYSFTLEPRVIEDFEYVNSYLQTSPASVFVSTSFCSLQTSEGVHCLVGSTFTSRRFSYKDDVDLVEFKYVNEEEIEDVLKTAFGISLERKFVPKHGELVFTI

(MOUSE)NAT2*1 = target: T3, (MOUSE)NAT2*1 (Mus musculus, UniProt P50295); assay: Substrate specific N-acetylation profile; type: biochemical; conditions: for % specific activity values: substrate 500 μM, relative to substrate with highest specific activity (100%), mean of 3 ± SD
T3 construct: made in house
T3 sequence (P50295 1-290): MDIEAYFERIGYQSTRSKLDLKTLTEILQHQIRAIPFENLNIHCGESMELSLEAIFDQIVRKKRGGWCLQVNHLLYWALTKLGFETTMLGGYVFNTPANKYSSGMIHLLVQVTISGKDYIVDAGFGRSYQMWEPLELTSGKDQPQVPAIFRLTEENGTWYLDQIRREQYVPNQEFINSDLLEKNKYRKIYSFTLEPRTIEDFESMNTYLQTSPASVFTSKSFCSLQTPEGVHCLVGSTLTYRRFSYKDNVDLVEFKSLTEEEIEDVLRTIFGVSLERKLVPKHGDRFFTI

(HUMAN)NAT1*4 = tested on: (HUMAN)NAT1*4; design: method as in PMID 15627487, PMID 18280460; conditions: substrate 500 μM, relative to substrate with highest specific activity (100%), mean of 3 ± SD, ref [8], [22]; cited from earlier work
(MOUSE)NAT2_F125S = target: T4, (MOUSE)NAT2_F125S (Mus musculus, UniProt P50295, F125S); assay: Substrate specific N-acetylation profile; type: biochemical; conditions: (MOUSE)NAT2 F125S; substrate 500 μM; relative to substrate with highest specific activity (100%); mean of 3 ± SD
T4 construct: His tag (only implied by Ni-NTA purification) (cleaved yes); made in house; host or cells: E. coli Rosetta(DE3)pLysS
T4 sequence (P50295 1-290 F125S): T3 sequence (P50295 1-290) with F125S

(MOUSE)NAT2_R127L = target: T5, (MOUSE)NAT2_R127L (Mus musculus, UniProt P50295, R127L); assay: Substrate specific N-acetylation profile; type: biochemical; conditions: for % specific activity values: (MOUSE)NAT2 R127L, substrate 500 μM, relative to substrate with highest specific activity (100%), mean of 3 ± SD
T5 construct: made in house
T5 sequence (P50295 1-290 R127L): T3 sequence (P50295 1-290) with R127L

[1] = ref [56]–[61], cited from earlier work; for pKaH of acetyl acceptor amine: as summarised in text from Table S1
(MOUSE)NAT2_R127G = target: T6, (MOUSE)NAT2_R127G (Mus musculus, UniProt P50295, R127G); assay: Substrate specific N-acetylation profile; type: biochemical; conditions: (MOUSE)NAT2 R127G; substrate 500 μM; relative to substrate with highest specific activity (100%); mean of 3 ± SD
T6 construct: made in house
T6 sequence (P50295 1-290 R127G): T3 sequence (P50295 1-290) with R127G

SMILES | % specific activity values ((MESAU)NAT2*1) [%] | % specific activity values ((HUMAN)NAT2*4) [%] | % specific activity values ((MOUSE)NAT1*1) [%] | Maximal specific activity ((MOUSE)NAT2*1; best substrate, 500 μM) [µM/s/mg] | % specific activity values ((MOUSE)NAT2*1) [%] | % specific activity values ((HUMAN)NAT1*4) [%] | % specific activity values ((MOUSE)NAT2_F125S) [%] | % specific activity values ((MOUSE)NAT2_R127L) [%] | pKaH of acetyl acceptor amine [1] | pKa(H) (COOH) [1] | pKa(H) (NH3^+) [1] | % specific activity values ((MOUSE)NAT2_R127G) [%] | pKa(H) (α-COOH) [1] | pKa(H) (γ-COOH) [1] | pKa(H) (OH) [1] | Maximal specific activity ((MOUSE)NAT2_R127L; (MOUSE)NAT2_R127L, best substrate, 500 μM) [µM/s/mg]
Nc1ccc(C(=O)O)cc1 [4ABA, 4-aminobenzoic acid] | 100 ± 6 | 6 ± 1 | 48 ± 6 | 196 | 100 ± 2 | 100 ± 2 | 70 ± 2 | 8 ± 1 | < 3 | 4.9 | 2.4 | 8 ± 1 |  |  |  | 
Nc1ccc(C(=O)N[C@@H](CCC(=O)O)C(=O)O)cc1 [4ABglu, 4-aminobenzoyl glutamate] | 57 ± 3 | 3 ± 1 | 8 ± 7 |  | 87 ± 1 | 20 ± 1 | 19 ± 1 | 8 ± 1 | < 3 |  | 2.7 | 9 ± 1 | 3.6 | 4.7 |  | 
Nc1ccc(C(=O)O)c(O)c1 [4AS, 4-aminosalicylate] | 74 ± 3 | 7 ± 1 | 88 ± 6 |  | 55 ± 1 | 67 ± 2 | 75 ± 3 | 13 ± 1 | < 3 | 6.0 | 2.3 | 27 ± 1 |  |  | 13.2 | 
COc1ccc(N)cc1OC [4AV, 4-aminoveratrole] | 32 ± 1 | 57 ± 3 | 28 ± 6 |  | 90 ± 1 | 25 ± 2 | 90 ± 1 | 100 ± 10 |  |  | 4.7 (NH3^+) | 66 ± 3 |  |  |  | 82.5
Nc1ccc(O)c(C(=O)O)c1 [5AS, 5-aminosalicylate] | 30 ± 1 | 64 ± 2 | 76 ± 6 |  | 37 ± 1 | 64 ± 3 | 74 ± 1 | 65 ± 9 |  |  |  | 94 ± 1 |  |  |  | 
NNc1nncc2ccccc12 [HDZ, hydralazine] | 3 ± 1 | 100 ± 1 | 68 ± 6 |  | 8 ± 2 | 2 ± 1 | 19 ± 1 | 95 ± 1 |  |  |  | 100 ± 2 |  |  |  | 
